Tests used:
[1] = target: T1, mouse FXR (Mus musculus, UniProt Q60641); test: CV-1 reporter gene assay, mFXR/hRXR with TK minimal, TK-ECRE*6 or TK-ER8*2 luciferase reporter; format: cell-based; conditions: for activation of ECRE FXRE reporter: CV-1, TK-ECRE*6; for activation of ER-8 FXRE reporter: CV-1, TK-ER8*2; for concentration at which maximal activity is achieved / activity on FXRE reporters: ECRE and ER-8 reporters
T1 construct: expressed in transfected cells; host or cells: CV-1 (monkey)
T1 sequence (Q60641 1-488): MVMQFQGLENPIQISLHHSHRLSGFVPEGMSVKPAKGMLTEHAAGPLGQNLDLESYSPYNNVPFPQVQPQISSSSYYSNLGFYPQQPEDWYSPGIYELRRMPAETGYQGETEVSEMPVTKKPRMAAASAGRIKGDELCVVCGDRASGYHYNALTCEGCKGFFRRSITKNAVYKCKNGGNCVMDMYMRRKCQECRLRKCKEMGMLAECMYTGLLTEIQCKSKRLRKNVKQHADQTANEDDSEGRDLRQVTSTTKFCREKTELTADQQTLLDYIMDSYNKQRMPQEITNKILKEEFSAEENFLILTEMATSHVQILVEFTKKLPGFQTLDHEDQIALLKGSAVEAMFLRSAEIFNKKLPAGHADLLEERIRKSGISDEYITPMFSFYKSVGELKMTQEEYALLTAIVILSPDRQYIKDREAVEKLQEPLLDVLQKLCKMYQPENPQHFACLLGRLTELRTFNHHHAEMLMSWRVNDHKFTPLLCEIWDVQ
T1 sequence (P19793 1-462 partner): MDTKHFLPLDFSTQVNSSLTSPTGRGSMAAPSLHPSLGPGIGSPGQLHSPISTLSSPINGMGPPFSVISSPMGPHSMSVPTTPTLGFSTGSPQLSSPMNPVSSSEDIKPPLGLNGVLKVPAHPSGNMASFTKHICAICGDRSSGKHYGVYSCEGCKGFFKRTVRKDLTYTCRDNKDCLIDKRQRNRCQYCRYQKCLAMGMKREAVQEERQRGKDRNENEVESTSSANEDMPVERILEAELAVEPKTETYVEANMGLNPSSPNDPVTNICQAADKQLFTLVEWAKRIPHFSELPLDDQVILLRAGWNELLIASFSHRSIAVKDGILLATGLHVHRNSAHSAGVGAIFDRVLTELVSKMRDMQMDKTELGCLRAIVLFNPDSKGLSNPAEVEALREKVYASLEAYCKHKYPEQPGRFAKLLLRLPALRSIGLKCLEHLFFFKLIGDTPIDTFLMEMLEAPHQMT
Protocol: (§1) FIGS. 2A-2F collectively show the results of ligand activation of CV-1 cells co-transfected with FXR constructs pCMX-mFXR and pCMX-hRXR and a luciferase reporter gene containing various promoters as follows: FIG. 2A with a minimal TK promoter, FIG. 2B with a TK-ECRE*6 promoter, FIG. 2C with a TK-ER8*2 promoter, FIG. 2D with HIBABP promoter, FIG. 2E with a hPLTP promoter, or FIG. 2 with a FhMRP-2 promoter.
(§2) For transfection of these constructs, monkey CV-1 HEPG2 and HEK293T cells were grown in DMEM supplemented with 10% FBS, 50 U/ml penicillin G, and 50 μg/ml streptomycin sulfate at 37° C. in 7% CO2. CV-1 cells (60%-70% confluence, 48-well plate) were cotransfected with 16.6 ng of the appropriate expression vector, 100 ng of reporter plasmid, and 100 ng of pCMX-LacZ in 200 μl of DMEM containing 10% FBS by the N-[1-(2,3-dioleoyloxy)propyl]-N,N,N-trimethylammonium methylsulfate (DOTAP)-mediated procedure. After 24 hr, the medium was replaced, and cells were harvested and assayed for luciferase activity 36-48 hr after transfection. The luciferase activity was normalized to the level of β-galactosidase activity. Each transfection was performed in triplicate and repeated at least three times.
The ability of these compounds to activate the receptor in a number of different cell-based reporter gene assays was then determined. […] CV-1 cells were transiently transfected with an expression plasmid for mouse FXR and human RXR with a thymidine kinase (minimal promoter reporter vector containing either no copies or six copies of the ecdysone response element (ECRE), a well-characterized FXR response element (FXRE). In addition, two copies of the recently identified FXRE everted repeat separated by 8 nucleotides (ER-8) was also studied (see, for example, Laffitte et al. (2000). Identification of the DNA binding specificity and potential target genes for the farnesoid X-activated receptor. J Biol. Chem. 275(14), 10638-47; Kast et al. (2002). Regulation of multidrug resistance-associated protein 2 (ABCC2) by the nuclear receptors pregnane X receptor, farnesoid X-activated receptor, and constitutive androstane receptor. J Biol Chem. 277(4), 2908-15).
Similar results were found in a variety of different cell types including liver cells (HEPG2) and kidney cells (HEK 293).

[2] = target: T1, mouse FXR; test: CV-1 transient transfection assay with natural promoters of FXR targets (hIBABP, hPLTP, hMRP-2); format: cell-based; conditions: for activation of IBABP promoter: hIBABP promoter; for concentration of maximum efficacy / activity on natural promoters: hIBABP, hPLTP, hMRP-2 promoters
Protocol: as §1, §2
For this study, the following gene promoters were used: intestinal bile acid binding protein (IBABP; see, for example, Grober et al. (1999). Identification of a bile acid-responsive element in the human ileal bile acid-binding protein gene. Involvement of the farnesoid X receptor/9-is-retinoic acid receptor heterodimer. J Biol Chem. 274(42), 29749-54>, phospholipid transfer protein (PLTP) (Urizar et al (2000). The farnesoid X-activated receptor mediates bile acid activation of phospholipid transfer protein gene expression. J Biol Chem. 275(50), 39313-7) and multidrug resistance related protein 2 (MRP-2) (Kast et al. (2002), supra), which are all well characterized targets of FXR. The natural promoters of both the IBABP and PLTP genes contain one copy of an inverted repeat with a one base spacing (IR-1) while MRP-2 contains an ER-8 element. […] The most robust activation (28-fold) was seen on the IBABP promoter. Less robust (2-3 fold) but specific activation was observed on the PLTP and MRP-2 promoters.

activation of ECRE FXRE reporter [1] [fold] | activation of ER-8 FXRE reporter [1] [fold] | concentration at which maximal activity is achieved [1] [µM] | activation of IBABP promoter [2] [fold] | concentration of maximum efficacy [2] [µM] | activity on FXRE reporters [1] | activity on natural promoters [2] | SMILES | activity on minimal TK promoter ([1]; reporter without FXRE)
– | – | – | – | – | little or no activity | little or no activity | COC(=O)/C=C/c1cccc(N(Cc2ccc(-c3ccccc3OC)cc2)C(=O)C(C)C)c1 [SRI-1] | –
– | – | – | – | – | little or no activity | little or no activity | COC(=O)/C=C/c1cccc(N(Cc2ccc(-c3ccc(C(C)(C)C)cc3)cc2)C(=O)C(C)C)c1 [SRI-2] | –

The remaining lines, values behind:

SMILES | activation of ECRE FXRE reporter [1] [fold] | activation of ER-8 FXRE reporter [1] [fold] | concentration at which maximal activity is achieved [1] [µM] | activation of IBABP promoter [2] [fold] | concentration of maximum efficacy [2] [µM] | activity on FXRE reporters [1] | activity on natural promoters [2] | activity on minimal TK promoter ([1]; reporter without FXRE)
CC(C)c1onc(-c2c(Cl)cccc2Cl)c1COc1ccc(/C=C/c2cccc(C(=O)O)c2)c(Cl)c1 [GW4064, reference compound] | 100 | 4 | 1 | 28 | 1 | – | – | less than 2 fold
COC(=O)/C=C/c1cccc(N(Cc2ccc(-c3ccc(N(C)C)cc3)cc2)C(=O)C2CCCCC2)c1 [fexaramine] | 100 | 4 | 1 | 28 | 1 | – | – | –
COC(=O)/C=C/c1cccc(N(Cc2ccc(/C=C/c3ccccc3)cc2)C(=O)C2CCCCC2)c1 [fexarene] | 100 | 4 | 1 | 28 | 1 | – | – | –
COC(=O)/C=C/c1cccc(N(Cc2ccc(-c3ccc4c(c3)OCO4)cc2)C(=O)C2CCCCC2)c1 [fexarine] | 100 | 4 | 1 | 28 | 1 | – | – | –

Reference: patent publication US7647217B2, “Structure of the farnesoid X receptor ligand binding domain and methods of use therefor” (The Salk Institute for Biological Studies, priority 2002, dated 2010)
